# Test results reported in ChEMBL document CHEMBL4483862, “Open-source discovery of chemical leads for next-generation chemoprotective antimalarials” (2018).
# Test system: Plasmodium berghei
# Test: Luciferase/luciferin-expressing antifolate-resistant parasites were used to infect a culture of HepG2 cells that were pre-incubated with compounds. Infected hepatocytes emit light due to the luciferase reaction. Assay results are presented as the percent inhibition of light emission compared to control. […]
# Assay type: functional
# Details: sporozoite; for IC90: read-out: LUCIFERASE INFECTION ASSAY - IC90
# [1] = read-out: LUCIFERASE INFECTION ASSAY - IC50
compound,measurement,setting,value
O=C1C(=C2NC(c3cccc(C(F)(F)F)c3)=CS2)Sc2ccccc21,IC50,"FFLUC_HILL_SLOPE 302, FFLUC_R_SQUARED 0.711, PBLUC_HILL_SLOPE 16.1, PBLUC_R_SQUARED 0.464, read-out: LUCIFERASE INFECTION ASSAY - IC50",2.83 µM
same,IC90,,3.25 µM
CC(C)(C)c1n[nH]c2c(-c3nc4ccccc4s3)c(N)nn2c1=O,IC50,"HEPG2TOX_HILL_SLOPE 1.58, HEPG2TOX_R_SQUARED 0.969, PBLUC_HILL_SLOPE 3.76, PBLUC_R_SQUARED 0.505, read-out: LUCIFERASE INFECTION ASSAY - IC50",3.16 µM
same,IC90,,5.67 µM
COc1ccc2c(-c3ccccc3)cc(SCC(=O)Nc3sccc3C(N)=O)nc2c1,IC50,[1],7.85 µM
same,IC90,,9.16 µM
CC(C)(C)C(=O)/C=c1\[nH]c(=O)/c(=C\c2ccc(-c3ccc(S(=O)(=O)N4CCOCC4)cc3)o2)s1,IC50,"FFLUC_HILL_SLOPE 2, FFLUC_R_SQUARED 0.892, read-out: LUCIFERASE INFECTION ASSAY - IC50",> 10 µM
same,IC90,,> 10 µM
OCc1ccc(-c2cnc3cnc(-c4cccs4)cn23)cc1,IC50,"PBLUC_HILL_SLOPE 16.2, PBLUC_R_SQUARED 0.35, read-out: LUCIFERASE INFECTION ASSAY - IC50",9.27 µM
same,IC90,,10.6 µM
Cc1cc(C2=NNC(=NC3CC3)SC2)c(C)n1-c1ccccn1,IC50,"FFLUC_HILL_SLOPE 1.22, FFLUC_R_SQUARED 0.875, PBLUC_HILL_SLOPE 1.09, PBLUC_R_SQUARED 0.799, read-out: LUCIFERASE INFECTION ASSAY - IC50",0.213 µM
same,IC90,,1.61 µM
Cc1cc(N2CCN(C(=O)C(C)Oc3ccc(F)cc3)CC2)nc(C(C)C)n1 (configuration not stated),IC50,[1],> 10 µM
same,IC90,,> 10 µM
O=C(NNc1ccc(F)cc1)c1cccc(S(=O)(=O)N2CCc3ccccc3C2)c1,IC50,"PBLUC_HILL_SLOPE 14.9, PBLUC_R_SQUARED 0.744, read-out: LUCIFERASE INFECTION ASSAY - IC50",9.22 µM
same,IC90,,> 10 µM
CC(=O)c1cccc(-c2cnc3cnc(-c4cccc(C(N)=O)c4)cn23)c1,IC50,"PBLUC_HILL_SLOPE 1.58, PBLUC_R_SQUARED 0.572, read-out: LUCIFERASE INFECTION ASSAY - IC50",3.69 µM
same,IC90,,> 9.26 µM
Cc1nc2ccc(I)cn2c1/C=N/Nc1ccccn1,IC50,"PBLUC_HILL_SLOPE 2.99, PBLUC_R_SQUARED 0.247, read-out: LUCIFERASE INFECTION ASSAY - IC50",6.77 µM
same,IC90,,> 10 µM
CCc1c2c(nc3sc(C(=O)Nc4nsc(-c5ccccc5)n4)c(N)c13)CC(C)(C)CC2=O,IC50,"PBLUC_HILL_SLOPE 1.15, PBLUC_R_SQUARED 0.361, read-out: LUCIFERASE INFECTION ASSAY - IC50",6.36 µM
same,IC90,,> 10 µM
COc1ccc(C(=O)Nc2nc3ccc(C)cn3c2C(=O)NC2CCCCC2)cc1,IC50,"FFLUC_HILL_SLOPE 17.6, FFLUC_R_SQUARED 0.155, HEPG2TOX_HILL_SLOPE 2.69, HEPG2TOX_R_SQUARED 0.972, PBLUC_HILL_SLOPE 14.3, PBLUC_R_SQUARED 0.423, read-out: LUCIFERASE INFECTION ASSAY - IC50",2.66 µM
same,IC90,,3.1 µM
Oc1c2n(c(=S)n1-c1ccc(Cl)cc1)CCS2,IC50,"FFLUC_HILL_SLOPE 3.58, FFLUC_R_SQUARED 0.45, PBLUC_HILL_SLOPE 7.55, PBLUC_R_SQUARED 0.0946, read-out: LUCIFERASE INFECTION ASSAY - IC50",10.5 µM
same,IC90,,> 11.6 µM
Cc1ccc(Sc2ccc(/C=c3\s/c(=C\C(=O)c4ccc(Cl)cc4)[nH]c3=O)cc2[N+](=O)[O-])cc1,IC50,[1],> 10 µM
same,IC90,,> 10 µM
Oc1c(C(c2ccc(Cl)cc2)c2cc(Cl)c3cccnc3c2O)cc(Cl)c2cccnc12,IC50,"FFLUC_HILL_SLOPE 4.28, FFLUC_R_SQUARED 0.979, HEPG2TOX_HILL_SLOPE 0.496, HEPG2TOX_R_SQUARED 0.799, PBLUC_HILL_SLOPE 1.82, PBLUC_R_SQUARED 0.848, read-out: LUCIFERASE INFECTION ASSAY - IC50",0.693 µM
same,IC90,,2.32 µM
CCN(Cc1ccccc1)C(=O)c1cc(-c2ccccc2)nc2c1cnn2CC,IC50,[1],> 10 µM
same,IC90,,> 10 µM
C=CCN1C(=O)C(O)(c2cnc(N)s2)c2ccccc21 (configuration not stated),IC50,[1],> 10 µM
same,IC90,,> 10 µM
CC(C)(C)c1csc(NC(=O)Nc2ccc(Cl)cc2)n1,IC50,"HEPG2TOX_HILL_SLOPE 9.42, HEPG2TOX_R_SQUARED 0.969, PBLUC_HILL_SLOPE 14.5, PBLUC_R_SQUARED 0.489, read-out: LUCIFERASE INFECTION ASSAY - IC50",9.21 µM
same,IC90,,> 10.7 µM
CCOC(=O)c1sc(SC)c2c1CCc1conc1-2,IC50,[1],> 11.2 µM
same,IC90,,> 11.2 µM
CC1(C)C2CCC1(C)C(NC(=O)COc1ccc(Br)cc1Cl)C2 (configuration not stated),IC50,"HEPG2TOX_HILL_SLOPE 4.37, HEPG2TOX_R_SQUARED 0.564, PBLUC_HILL_SLOPE 4.64, PBLUC_R_SQUARED 0.01, read-out: LUCIFERASE INFECTION ASSAY - IC50",5.08 µM
same,IC90,,8.17 µM
COc1ccc(Nc2nccc3c2cc(-c2ccccc2OC)n3C)c(OC)c1,IC50,"PBLUC_HILL_SLOPE 3.43, PBLUC_R_SQUARED 0.599, read-out: LUCIFERASE INFECTION ASSAY - IC50",4.25 µM
same,IC90,,8.07 µM
